From patent US10689367B2, “Triazole pyridyl compounds as agonists of the APJ receptor” (AMGEN INC., priority 2016, dated 2020)

biological target: human APJ receptor (Homo sapiens (Human), UniProt P35414); test: [35S]GTPγS binding assay on membranes from CHO cells stably expressing human APJ receptor; format: biochemical; conditions: membranes of CHO cells stably expressing human APJ receptor, read-out: Activity hAPJ SPA EC50 IP
Protocol: The human APJ receptor was cloned by polymerase chain reaction and the gene encoding the receptor was subcloned in pFLAG-CMV™-3 expression vector (Sigma, Saint Louis, Mo. USA) in-house at Amgen. A GTPγS binding assay was performed on membranes prepared from CHO cells stably expressing human APJ receptor. The optimum experimental conditions for the concentrations of GDP, MgCl2, and NaCl in the assay buffer were initially determined. […] Incubation was at RT for 90 min and the microplate was read using a ViewLux™ ultra HTS Microplate Imager (PerkinElmer, Inc.). All the results presented are means of several independent experiments and analyzed by non-linear regression methods using the commercially available program Prism (GraphPad, San Diego, Calif.) providing the EC50 values detailed in Table 27.

Sequence of human APJ receptor (P35414 whole entry): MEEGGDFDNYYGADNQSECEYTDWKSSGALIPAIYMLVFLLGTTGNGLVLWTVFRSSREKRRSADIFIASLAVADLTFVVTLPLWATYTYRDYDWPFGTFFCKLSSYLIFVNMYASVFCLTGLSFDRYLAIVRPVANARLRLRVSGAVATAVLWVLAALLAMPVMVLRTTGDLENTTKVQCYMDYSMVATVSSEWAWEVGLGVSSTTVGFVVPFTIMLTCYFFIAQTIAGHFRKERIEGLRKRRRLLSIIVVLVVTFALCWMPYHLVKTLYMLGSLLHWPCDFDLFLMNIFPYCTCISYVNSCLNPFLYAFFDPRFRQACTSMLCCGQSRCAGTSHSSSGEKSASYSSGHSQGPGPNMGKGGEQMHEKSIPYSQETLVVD

SMILES | EC50 [nM]
COc1cccc(-c2nnc(NS(=O)(=O)[C@@H](C)[C@@H](OC(C)C)c3ncc(C)cn3)n2C[C@H]2CCCO2)n1 (racemic) [Example 277.0, (1S,2S)-1-isopropoxy-N-(5-(6-methoxypyridin-2-yl)-4-(((R)-tetrahydrofuran-2-yl)methyl)-4H-1,2,4-triazol-3-yl)-1-(5-methylpyrimidin-2-yl)propane-2-sulfonamide or (1S,2S)-1-isopropoxy-N-(5-(6-methoxypyridin-2-yl)-4-(((S)-tetrahydrofuran-2-yl)methyl)-4H-1,2,4-triazol-3-yl)-1-(5-methylpyrimidin-2-yl)propane-2-sulfonamide] | 14
COc1cccc(-c2nnc(NS(=O)(=O)[C@@H](C)[C@@H](OC(C)C)c3ncc(C)cn3)n2C[C@H]2CCCO2)n1 (racemic) [Example 278.0, (1S,2S)-1-isopropoxy-N-(5-(6-methoxypyridin-2-yl)-4-(((R)-tetrahydrofuran-2-yl)methyl)-4H-1,2,4-triazol-3-yl)-1-(5-methylpyrimidin-2-yl)propane-2-sulfonamide or (1S,2S)-1-isopropoxy-N-(5-(6-methoxypyridin-2-yl)-4-(((S)-tetrahydrofuran-2-yl)methyl)-4H-1,2,4-triazol-3-yl)-1-(5-methylpyrimidin-2-yl)propane-2-sulfonamide] | 16
COc1cccc(-c2nnc(NS(=O)(=O)[C@@H](C)[C@H](C)c3ncc(Cl)cn3)n2C[C@H]2CCCO2)n1 (racemic) [Example 281.0, (2S,3R)-3-(5-chloropyrimidin-2-yl)-N-(5-(6-methoxypyridin-2-yl)-4-(((R)-tetrahydrofuran-2-yl)methyl)-4H-1,2,4-triazol-3-yl)butane-2-sulfonamide or (2S,3R)-3-(5-chloropyrimidin-2-yl)-N-(5-(6-methoxypyridin-2-yl)-4-(((S)-tetrahydrofuran-2-yl)methyl)-4H-1,2,4-triazol-3-yl)butane-2-sulfonamide] | 110
COc1cccc(-c2nnc(NS(=O)(=O)[C@@H](C)[C@H](C)c3ncc(Cl)cn3)n2C[C@H]2CCCO2)n1 (racemic) [Example 282.0, (2S,3R)-3-(5-chloropyrimidin-2-yl)-N-(5-(6-methoxypyridin-2-yl)-4-(((R)-tetrahydrofuran-2-yl)methyl)-4H-1,2,4-triazol-3-yl)butane-2-sulfonamide or (2S,3R)-3-(5-chloropyrimidin-2-yl)-N-(5-(6-methoxypyridin-2-yl)-4-(((S)-tetrahydrofuran-2-yl)methyl)-4H-1,2,4-triazol-3-yl)butane-2-sulfonamide] | 54
COc1cccc(-c2nnc(NS(=O)(=O)[C@@H](C)[C@H](OC)c3ncc(Cl)cn3)n2C[C@H]2CCCCO2)n1 (racemic) [Example 287.0, (1R,2S)-1-(5-chloropyrimidin-2-yl)-1-methoxy-N-(5-(6-methoxypyridin-2-yl)-4-(((R)-tetrahydro-2H-pyran-2-yl)methyl)-4H-1,2,4-triazol-3-yl)propane-2-sulfonamide or (1R,2S)-1-(5-chloropyrimidin-2-yl)-1-methoxy-N-(5-(6-methoxypyridin-2-yl)-4-(((S)-tetrahydro-2H-pyran-2-yl)methyl)-4H-1,2,4-triazol-3-yl)propane-2-sulfonamide] | 5.9
COc1cccc(-c2nnc(NS(=O)(=O)[C@@H](C)[C@H](OC)c3ncc(Cl)cn3)n2C[C@H]2CCCCO2)n1 (racemic) [Example 288.0, (1R,2S)-1-(5-chloropyrimidin-2-yl)-1-methoxy-N-(5-(6-methoxypyridin-2-yl)-4-(((R)-tetrahydro-2H-pyran-2-yl)methyl)-4H-1,2,4-triazol-3-yl)propane-2-sulfonamide or (1R,2S)-1-(5-chloropyrimidin-2-yl)-1-methoxy-N-(5-(6-methoxypyridin-2-yl)-4-(((S)-tetrahydro-2H-pyran-2-yl)methyl)-4H-1,2,4-triazol-3-yl)propane-2-sulfonamide] | 3.3
COc1cccc(-c2nnc(NS(=O)(=O)[C@@H](C)[C@H](C)c3ncc(Cl)cn3)n2[C@H](C)c2cnn(C)c2)n1 (racemic) [Example 297.0, (2S,3R)-3-(5-chloropyrimidin-2-yl)-N-(5-(6-methoxypyridin-2-yl)-4-((R)-1-(1-methyl-1H-pyrazol-4-yl)ethyl)-4H-1,2,4-triazol-3-yl)butane-2-sulfonamide or (2S,3R)-3-(5-chloropyrimidin-2-yl)-N-(5-(6-methoxypyridin-2-yl)-4-((S)-1-(1-methyl-1H-pyrazol-4-yl)ethyl)-4H-1,2,4-triazol-3-yl)butane-2-sulfonamide] | 4.3
COc1cccc(-c2nnc(NS(=O)(=O)[C@@H](C)[C@H](C)c3ncc(Cl)cn3)n2[C@H](C)c2cnn(C)c2)n1 (racemic) [Example 298.0, (2S,3R)-3-(5-chloropyrimidin-2-yl)-N-(5-(6-methoxypyridin-2-yl)-4-((R)-1-(1-methyl-1H-pyrazol-4-yl)ethyl)-4H-1,2,4-triazol-3-yl)butane-2-sulfonamide or (2S,3R)-3-(5-chloropyrimidin-2-yl)-N-(5-(6-methoxypyridin-2-yl)-4-((S)-1-(1-methyl-1H-pyrazol-4-yl)ethyl)-4H-1,2,4-triazol-3-yl)butane-2-sulfonamide] | 1.5
COc1cccc(-c2nnc(NS(=O)(=O)[C@@H](C)[C@H](OC)c3ncc(Cl)cn3)n2C[C@@H]2COCCO2)n1 (racemic) [Example 303.0, (1R,2S)-N-(4-(((R)-1,4-dioxan-2-yl)methyl)-5-(6-methoxypyridin-2-yl)-4H-1,2,4-triazol-3-yl)-1-(5-chloropyrimidin-2-yl)-1-methoxypropane-2-sulfonamide or (1R,2S)-N-(4-(((S)-1,4-dioxan-2-yl)methyl)-5-(6-methoxypyridin-2-yl)-4H-1,2,4-triazol-3-yl)-1-(5-chloropyrimidin-2-yl)-1-methoxypropane-2-sulfonamide] | 27
COc1cccc(-c2nnc(NS(=O)(=O)[C@@H](C)[C@H](OC)c3ncc(Cl)cn3)n2C[C@@H]2COCCO2)n1 (racemic) [Example 304.0, (1R,2S)-N-(4-(((R)-1,4-dioxan-2-yl)methyl)-5-(6-methoxypyridin-2-yl)-4H-1,2,4-triazol-3-yl)-1-(5-chloropyrimidin-2-yl)-1-methoxypropane-2-sulfonamide or (1R,2S)-N-(4-(((S)-1,4-dioxan-2-yl)methyl)-5-(6-methoxypyridin-2-yl)-4H-1,2,4-triazol-3-yl)-1-(5-chloropyrimidin-2-yl)-1-methoxypropane-2-sulfonamide] | 20
COc1cccc(-c2nnc(NS(=O)(=O)[C@@H](C)[C@H](OC)c3ncc(Cl)cn3)n2[C@@H](C)c2c(C)noc2C)n1 (racemic) [Example 309.0, (1R,2S)-1-(5-chloropyrimidin-2-yl)-N-(4-((R)-1-(3,5-dimethylisoxazol-4-yl)ethyl)-5-(6-methoxypyridin-2-yl)-4H-1,2,4-triazol-3-yl)-1-methoxypropane-2-sulfonamide or (1R,2S)-1-(5-chloropyrimidin-2-yl)-N-(4-((S)-1-(3,5-dimethylisoxazol-4-yl)ethyl)-5-(6-methoxypyridin-2-yl)-4H-1,2,4-triazol-3-yl)-1-methoxypropane-2-sulfonamide] | 9.2
COc1cccc(-c2nnc(NS(=O)(=O)[C@@H](C)[C@H](OC)c3ncc(Cl)cn3)n2[C@@H](C)c2c(C)noc2C)n1 (racemic) [Example 310.0, (1R,2S)-1-(5-chloropyrimidin-2-yl)-N-(4-((R)-1-(3,5-dimethylisoxazol-4-yl)ethyl)-5-(6-methoxypyridin-2-yl)-4H-1,2,4-triazol-3-yl)-1-methoxypropane-2-sulfonamide or (1R,2S)-1-(5-chloropyrimidin-2-yl)-N-(4-((S)-1-(3,5-dimethylisoxazol-4-yl)ethyl)-5-(6-methoxypyridin-2-yl)-4H-1,2,4-triazol-3-yl)-1-methoxypropane-2-sulfonamide] | 7.4
COc1cccc(-c2nnc(NS(=O)(=O)[C@@H](C)[C@H](OC)c3ncc(Cl)cn3)n2C[C@@H]2CCCOC2)n1 (racemic) [Example 311.0, (1R,2S)-1-(5-chloropyrimidin-2-yl)-1-methoxy-N-(5-(6-methoxypyridin-2-yl)-4-(((R)-tetrahydro-2H-pyran-3-yl)methyl)-4H-1,2,4-triazol-3-yl)propane-2-sulfonamide or (1R,2S)-1-(5-chloropyrimidin-2-yl)-1-methoxy-N-(5-(6-methoxypyridin-2-yl)-4-(((S)-tetrahydro-2H-pyran-3-yl)methyl)-4H-1,2,4-triazol-3-yl)propane-2-sulfonamide] | 33
COc1cccc(-c2nnc(NS(=O)(=O)[C@@H](C)[C@H](OC)c3ncc(Cl)cn3)n2C[C@@H]2CCCOC2)n1 (racemic) [Example 312.0, (1R,2S)-1-(5-chloropyrimidin-2-yl)-1-methoxy-N-(5-(6-methoxypyridin-2-yl)-4-(((R)-tetrahydro-2H-pyran-3-yl)methyl)-4H-1,2,4-triazol-3-yl)propane-2-sulfonamide or (1R,2S)-1-(5-chloropyrimidin-2-yl)-1-methoxy-N-(5-(6-methoxypyridin-2-yl)-4-(((S)-tetrahydro-2H-pyran-3-yl)methyl)-4H-1,2,4-triazol-3-yl)propane-2-sulfonamide] | 13
COc1cccc(-c2nnc(NS(=O)(=O)[C@@H](C)[C@H](C)c3ncc(Cl)cn3)n2[C@@H](C)c2c(C)noc2C)n1 (racemic) [Example 313.0, (2S,3R)-3-(5-chloropyrimidin-2-yl)-N-(4-((R)-1-(3,5-dimethylisoxazol-4-yl)ethyl)-5-(6-methoxypyridin-2-yl)-4H-1,2,4-triazol-3-yl)butane-2-sulfonamide or (2S,3R)-3-(5-chloropyrimidin-2-yl)-N-(4-((S)-1-(3,5-dimethylisoxazol-4-yl)ethyl)-5-(6-methoxypyridin-2-yl)-4H-1,2,4-triazol-3-yl)butane-2-sulfonamide] | 21
